Experimental data from PMC8612341, “Cyclic ^68Ga-Labeled Peptides for Specific Detection of Human Angiotensin-Converting Enzyme 2” (Journal of Nuclear Medicine, 2021).
Where a SMILES comes first, the peptide text is derived from it. Bridges are numbered along the chain shown (N, C = ends). The star is where a group is joined. NOTA = O=C(O)CN1CCN(CC(=O)O)CCN(CC(=O)*)CC1

Legend:
ACE2 [1] = molecular target: T1, ACE2 (Homo sapiens, UniProt Q9BYF1); experiment: ACE2 inhibition assay (SensoLyte 390 ACE2 Activity Assay Kit, fluorimetric, AnaSpec); assay type: biochemical; settings: for IC50: nonlinear fit of 6-point dilution series, Fig. 2D
T1 construct: purchased AnaSpec AS-72086
Description: Six DX600-derived peptides, named NOTA-PEP1 to NOTA-PEP6 (cyclic vs. noncyclic, with triglycine, aminocaproate, and polyethylene glycol linkers), were studied using a commercially available ACE2 inhibition assay according to the manufacturer’s instructions (SensoLyte 390 ACE2 Activity Assay Kit *Fluorimetric*, AS-72086; AnaSpec). Each peptide inhibitor was first tested at 4 concentrations. Initial velocities were determined relative to the inhibitor free reaction. Subsequently, IC50 values were derived from nonlinear fits of saturation curves of a 6-point dilution series of peptide inhibitors.

ACE2 [2] = molecular target: T1, ACE2; set-up: method as in earlier work; settings: vs. ACE and carboxypeptidase A; ref 30 (Huang et al.); cited from earlier work
[3] = fluorometric ACE2 inhibition assay (AnaSpec)

T1 sequence (Q9BYF1 18-805): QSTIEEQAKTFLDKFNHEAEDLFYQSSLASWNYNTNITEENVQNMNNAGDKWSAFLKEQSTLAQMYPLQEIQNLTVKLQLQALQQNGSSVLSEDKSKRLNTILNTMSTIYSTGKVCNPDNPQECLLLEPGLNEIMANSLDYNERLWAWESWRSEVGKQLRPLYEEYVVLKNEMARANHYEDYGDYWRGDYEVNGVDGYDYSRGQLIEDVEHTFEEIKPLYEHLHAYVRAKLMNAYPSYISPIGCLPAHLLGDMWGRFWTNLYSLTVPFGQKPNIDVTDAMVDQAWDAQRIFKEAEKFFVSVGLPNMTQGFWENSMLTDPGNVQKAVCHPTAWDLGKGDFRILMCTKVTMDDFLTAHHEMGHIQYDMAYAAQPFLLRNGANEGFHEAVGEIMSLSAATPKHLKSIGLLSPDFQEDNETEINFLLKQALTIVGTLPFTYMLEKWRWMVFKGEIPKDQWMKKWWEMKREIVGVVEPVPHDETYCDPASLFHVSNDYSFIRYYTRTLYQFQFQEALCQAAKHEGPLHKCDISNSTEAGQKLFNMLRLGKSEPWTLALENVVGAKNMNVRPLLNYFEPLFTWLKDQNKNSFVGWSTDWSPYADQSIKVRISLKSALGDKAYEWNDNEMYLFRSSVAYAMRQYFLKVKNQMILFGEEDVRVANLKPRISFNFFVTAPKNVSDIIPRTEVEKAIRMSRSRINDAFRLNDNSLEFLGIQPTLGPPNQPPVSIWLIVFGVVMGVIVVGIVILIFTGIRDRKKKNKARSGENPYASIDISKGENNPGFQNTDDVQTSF

Row | SMILES | Change of observed ACE2 IC50 on addition of tris(2-carboxyethyl)phosphine (TCEP) (ACE2 [1]; TCEP reduces the disulfide bridge (producing linear NOTA-PEP5), Fig. 2E) | ACE2 inhibition compared with parent DX600 peptide (ACE2 [1]; fluorometric ACE2 inhibition assay (AnaSpec), Figs. 2C and 2D) | IC50 (ACE2 [1]; [3]) [nM] | Specificity for ACE2 (ACE2 [2])
1 | CC(C)C[C@@H]1NC(=O)[C@@H]2CCCN2C(=O)[C@H](CO)NC(=O)[C@@H](NC(=O)[C@H](Cc2c[nH]cn2)NC(=O)[C@H](CO)NC(=O)[C@H](Cc2ccc(O)cc2)NC(=O)[C@H](CC(=O)O)NC(=O)CNC(=O)CCOCCOCCNC(=O)CN2CCN(CC(=O)O)CCN(CC(=O)O)CC2)CSSC[C@@H](C(=O)N[C@H](C(=O)N[C@@H](Cc2ccc(O)cc2)C(=O)N2CCC[C@H]2C(=O)N[C@@H](CC(=O)O)C(=O)N2CCC[C@H]2C(=O)N[C@@H](CCC(=O)O)C(=O)NCC(=O)NCC(=O)NCC(N)=O)[C@@H](C)O)NC(=O)[C@H](CCCCN)NC(=O)[C@H](Cc2c[nH]c3ccccc23)NC(=O)[C@H](Cc2c[nH]c3ccccc23)NC(=O)[C@@H]2CCCN2C(=O)[C@H](Cc2ccc(O)cc2)NC(=O)[C@H](Cc2ccc(O)cc2)NC(=O)[C@H](CCCNC(=N)N)NC1=O [NOTA-PEP6] | markedly increased | nearly identical to DX600 |  | 
2 | CC(C)C[C@@H]1NC(=O)[C@@H]2CCCN2C(=O)[C@H](CO)NC(=O)[C@@H](NC(=O)[C@H](Cc2c[nH]cn2)NC(=O)[C@H](CO)NC(=O)[C@H](Cc2ccc(O)cc2)NC(=O)[C@H](CC(=O)O)NC(=O)CNC(=O)CNC(=O)CNC(=O)CNC(=O)CN2CCN(CC(=O)O)CCN(CC(=O)O)CC2)CSSC[C@@H](C(=O)N[C@H](C(=O)N[C@@H](Cc2ccc(O)cc2)C(=O)N2CCC[C@H]2C(=O)N[C@@H](CC(=O)O)C(=O)N2CCC[C@H]2C(=O)N[C@@H](CCC(=O)O)C(=O)NCC(=O)NCC(=O)NCC(N)=O)[C@@H](C)O)NC(=O)[C@H](CCCCN)NC(=O)[C@H](Cc2c[nH]c3ccccc23)NC(=O)[C@H](Cc2c[nH]c3ccccc23)NC(=O)[C@@H]2CCCN2C(=O)[C@H](Cc2ccc(O)cc2)NC(=O)[C@H](Cc2ccc(O)cc2)NC(=O)[C@H](CCCNC(=N)N)NC1=O [NOTA-PEP2] ({NOTA}-GGGGDYSHCSPLRYYPWWKCTYPDPEGGG-NH2; disulfide 9-20) |  |  | 101 | 
3 | CC(C)C[C@@H]1NC(=O)[C@@H]2CCCN2C(=O)[C@H](CO)NC(=O)[C@@H](NC(=O)[C@H](Cc2c[nH]cn2)NC(=O)[C@H](CO)NC(=O)[C@H](Cc2ccc(O)cc2)NC(=O)[C@H](CC(=O)O)NC(=O)CNC(=O)CCCCCNC(=O)CN2CCN(CC(=O)O)CCN(CC(=O)O)CC2)CSSC[C@@H](C(=O)N[C@H](C(=O)N[C@@H](Cc2ccc(O)cc2)C(=O)N2CCC[C@H]2C(=O)N[C@@H](CC(=O)O)C(=O)N2CCC[C@H]2C(=O)N[C@@H](CCC(=O)O)C(=O)NCC(=O)NCC(=O)NCC(N)=O)[C@@H](C)O)NC(=O)[C@H](CCCCN)NC(=O)[C@H](Cc2c[nH]c3ccccc23)NC(=O)[C@H](Cc2c[nH]c3ccccc23)NC(=O)[C@@H]2CCCN2C(=O)[C@H](Cc2ccc(O)cc2)NC(=O)[C@H](Cc2ccc(O)cc2)NC(=O)[C@H](CCCNC(=N)N)NC1=O [NOTA-PEP4] |  |  | 67.6 | 
4 | CC(C)C[C@H](NC(=O)[C@@H]1CCCN1C(=O)[C@H](CO)NC(=O)[C@H](CS)NC(=O)[C@H](Cc1c[nH]cn1)NC(=O)[C@H](CO)NC(=O)[C@H](Cc1ccc(O)cc1)NC(=O)[C@H](CC(=O)O)NC(=O)CNC(=O)CNC(=O)CNC(=O)CNC(=O)CN1CCN(CC(=O)O)CCN(CC(=O)O)CC1)C(=O)N[C@@H](CCCNC(=N)N)C(=O)N[C@@H](Cc1ccc(O)cc1)C(=O)N[C@@H](Cc1ccc(O)cc1)C(=O)N1CCC[C@H]1C(=O)N[C@@H](Cc1c[nH]c2ccccc12)C(=O)N[C@@H](Cc1c[nH]c2ccccc12)C(=O)N[C@@H](CCCCN)C(=O)N[C@@H](CS)C(=O)N[C@H](C(=O)N[C@@H](Cc1ccc(O)cc1)C(=O)N1CCC[C@H]1C(=O)N[C@@H](CC(=O)O)C(=O)N1CCC[C@H]1C(=O)N[C@@H](CCC(=O)O)C(=O)NCC(=O)NCC(=O)NCC(N)=O)[C@@H](C)O [NOTA-PEP1] ({NOTA}-GGGGDYSHCSPLRYYPWWKCTYPDPEGGG-NH2) |  |  | 2400 | 
5 | CC(=O)NCC(=O)N[C@@H](CC(=O)O)C(=O)N[C@@H](Cc1ccc(O)cc1)C(=O)N[C@@H](CO)C(=O)N[C@@H](Cc1c[nH]cn1)C(=O)N[C@H]1CSSC[C@@H](C(=O)N[C@H](C(=O)N[C@@H](Cc2ccc(O)cc2)C(=O)N2CCC[C@H]2C(=O)N[C@@H](CC(=O)O)C(=O)N2CCC[C@H]2C(=O)N[C@@H](CCC(=O)O)C(=O)NCC(=O)NCC(=O)NCC(N)=O)[C@@H](C)O)NC(=O)[C@H](CCCCN)NC(=O)[C@H](Cc2c[nH]c3ccccc23)NC(=O)[C@H](Cc2c[nH]c3ccccc23)NC(=O)[C@@H]2CCCN2C(=O)[C@H](Cc2ccc(O)cc2)NC(=O)[C@H](Cc2ccc(O)cc2)NC(=O)[C@H](CCCNC(=N)N)NC(=O)[C@H](CC(C)C)NC(=O)[C@@H]2CCCN2C(=O)[C@H](CO)NC1=O [DX600, reference compound] |  |  | 114 | specificity for ACE2 vs. ACE and carboxypeptidase A
